From patent publication US20260137679A1, “GCN2 INHIBITOR FOR TREATING METASTASES” (HIBERCELL, INC., priority 2022, published 2026)

Columns and labels:
[1] = system: 4T1 mouse breast cancer cell line; assay: 4T1 murine orthotopic allograft tumor model, lung metastases (H&E analysis); assay type: in vivo
Text: (§1) 4T1 mouse breast cancer cell line was purchased from American Type Culture Collection (ATCC). Cells were free of human and animal pathogens as tested by h-IMPACT-I and IMPACT-III. Additionally, the genetic profile of the cells matched with the ECACC reference standard as tested by STR based DNA fingerprinting assay. Cells were maintained in RPMI 1640 with 10% FBS, and cultured up to 4 passages prior to implantation. Cells were harvested at ˜80% confluence, washed twice with RPMI 1640 without FBS and suspended in RPMI 1640 without FBS at 10×10^6 cells/mL for implantation.
(§2) Female Balb/c mice (7-8 week of age) were implanted into the right 4th mammary fat pad under Isoflurane anesthesia with 0.5×10^6 4T1 cells/mouse in a total volume of […] on Day 0 Animals were randomized into treatment groups when the average tumor volume reached 50-100 mm^3 on Day 6 post inoculation. Tumors were measured via caliper 2×/week. Tumor volume was calculated using the formula [tumor volume (mm^3)=π/6×length×width^2) Animals were sacrificed at either 7, 14, or 21 days post treatment via CO2 asphyxiation.
(§3) Lungs were perfused with PBS through the heart to remove as much blood as possible prior to collection. Spleens were collected and weighed. […] The remaining lungs were collected with remaining spleen in RPMI medium+5% FBS on ice for flow cytometry. Separate animals were enrolled for lung IHC analyses. Following euthanasia of these animals, lungs were inflated with 10% neutral buffered formalin prior to formalin fixation for 48 hours and paraffin embedding.
Multiple paraffin sections more than 200 μm apart were cut for each lung sample. […] Images were analyzed using custom-written macros in ImageJ/FIJI (NIH) analyzing the relative proportion of tumor regions to the whole lung area. The tumor regions were transferred onto the images of immune-stained sections and intensities of ASNS and PSAT1 signals within these tumor regions were quantified. […]

primary 4T1 tumors = assay: 4T1 orthotopic allograft, primary tumor volume; assay type: in vivo, mouse; settings: PO, BID; three independent studies; FIG. 4
Text: as §1, §2

[2] = system: ISR-induced amino acid biosynthesis proteins ASNS and PSAT1; assay: IHC of ISR-induced proteins in lungs of 4T1 tumor-bearing mice; assay type: in vivo, mouse; settings: 3 mg/kg HC-7366; 21 days post treatment initiation; FIG. 7B
Procedure: as §3
Multiple paraffin sections more than 200 μm apart were cut for each lung sample. Three sections were stained with H&E on Leica Autostainer while one adjacent section was immuno-stained for ASNS (Cell Signaling #92479) and PSAT1 (Proteintech #10501-1-AP) using the Bond Rx stainer (Leica Biosystems). Stained slides were digitized using Versa 200 slide scanner (Leica Biosystems). Images were analyzed using custom-written macros in ImageJ/FIJI (NIH) analyzing the relative proportion of tumor regions to the whole lung area. The tumor regions were transferred onto the images of immune-stained sections and intensities of ASNS and PSAT1 signals within these tumor regions were quantified. (Graphing and statistics were performed using Prism Graphpad).

[3] = system: ISR-induced proteins (PSAT1, ATF4, TRIB3, ASNS); assay: JESS measurement of ISR-induced proteins in primary 4T1 tumors; assay type: in vivo, mouse; settings: 3 mg/kg HC-7366; 7 days post treatment initiation; FIG. 7C
Procedure: A small (lentil-sized) piece of frozen tumor was lysed in 500 μl of lysis buffer containing 2% SDS, 10% betamercaptoethanol, protease and phosphatase inhibitors (Roche, 04 693 159 001 and 04 906 837 001), and 1× Benzonase (Sigma, E1014-25KU). Each sample was homogenized using a polytron (PT 10-35 GT) for 30 seconds, and heated at 95° C. for 5 minutes. Protein concentrations were determined using a 660 nm Protein assay (Pierce, 22662), with the detergent compatibility reagent (Pierce, 22663), according to manufacturer instructions.
Protein samples were analyzed by JESS (ProteinSimple) using the 12-230 kDa separation module (ProteinSimple, SM-W004), and antibodies targeting PSAT1 (Proteintech, 10501-1-AP), ATF4 (AbCam, ab184909), TRIB3 (Proteintech, 66702-1), and ASNS (Proteintech, 14681-1-AP).

[4] = Spleen weight (splenomegaly) in 4T1 allografted mice; assay type: in vivo, mouse; settings: especially at the activating 3 mg/kg dose level; 3 independent studies; FIG. 8B
Procedure: as §3

[5] = system: myeloid cells (immune gene transcripts); assay: Quantigene gene expression analysis of tumors and spleens of 4T1 mice; assay type: in vivo, mouse; settings: Day 21 of Tx, FIG. 9
Procedure: Mouse tumor and spleen tissues were snap frozen and stored in −80° C. freezer. The frozen tissue was soaked in 10× volume of the RNAlater®-ICE (ThermoFisher) at −20° C. for >16 hr. Then the tissue was transferred into M tube (Miltenyi Biotech) containing RLT lysis buffer (Qiagen) and homogenized by gentleMACS Dissociators with program of RNA_02 (Miltenyi Biotech). Total RNA was isolated from homogenized tissue using the RNeasy Plus Mini Kit (Qiagen) RNA concentration was determined by Epoch Microplate Spectrophotometer (Biotek).
A custom-made 77-plex mouse Immune QuantiGene Assay kit (ThermoFisher Scientific) using a bead-based multiplex assay were used to measure the expression of 69 immune genes, 4 stress genes plus 4 reference genes with Luminex xMAP 200 (ThermoFisher Scientific) according to the manufacturer's instructions.

MDSCs and T-cells = assay: Flow cytometry of single cell suspensions from spleens and lungs of 4T1 mice; assay type: in vivo, mouse
Text: Tissue processing for single cell suspensions: • Spleen: Spleens were mashed through wetted 70 μm nylon strainer using syringe plunger. Strainers were rinsed with RPMI+5% FBS. Cells were pelleted and RBCs lysed with ACK lysis buffer (Gibco) per manufacturer's instructions. Cells were resuspended in RPMI+5% FBS and counted prior to plating for staining. • Lungs: Lungs were homogenized and enzymatically digested using a Mouse Tumor Dissociation Kit (miltenyi) per manufacturer's instructions. Cells were resuspended in RPMI+5% FBS and counted prior to plating for staining. During the digestion at 37° C., brefeldin A (Biolegend) was included in the enzyme mix to prevent export of cytokines.
1E6 cells per sample were plated in 96 well plates and extracellular staining was performed per standard procedures. Following extracellular staining, cells were fixed and permeabilized using FoxP3/Transcription Factor Staining Buffer Kit (Tonbo) and intracellular staining was performed per standard procedures. The following antibodies were used.
Following staining, flow cytometry was performed on a Cytek Aurora cytometer and analyzed using FlowJo software.

[6] = system: BM-derived MDSCs / T-cells; assay: Ex vivo co-culture of bone marrow-derived MDSCs with purified T-cells in tryptophan-depleted medium; assay type: cell-based, mouse; settings: 0.1 μM HC-7366, 1:8 MDSCs:T-cells, FIG. 11B
Procedure: Single cell suspensions from mouse bone marrow were prepared. Cells were cultured in RPMI complete medium supplemented with GMCSF & IL6 (10 μg/mL) for 4 days to differentiate cells into PMN-MDSCs. T-cells were purified from mouse spleens with EasySep Mouse T-cell isolation kit per manufacturer's instructions Purified T-cells cells were then stained with CellTrace Violet dye (thermo) per manufacturer's instructions. Differentiated MDSCs and purified T-cells were co-cultured in tryptophan-depleted medium+/−HC-7366 (0.1 μM) for […], at a ratio of 1:8 MDSCs:T-cells. Proliferation of T-cells was measured by dilution of CTV via flow cytometry on a BD LSR Fortessa.

[7] = system: CD4 and CD8 T-cells, S100A8/S100A9 in CD11b+ cells; assay: Multiplex imaging of FFPE lung samples from 4T1 allografted mice; assay type: in vivo, mouse
Procedure: Slides were cut from FFPE lung samples. Slides were deparaffinized, rehydrated and heat mediated antigen retrieval was conducted with AR6 buffer (Akoya). Slides were blocked with Roche diagnostics antibody diluent (Fisher) and stained with primary antibodies for 1 hr at 110 rpm. HRP-conjugated secondary antibodies were added for 10 mins at 110 rpm followed by 10 mins with OPAL detection dye (Akoya). For multiplex staining, this process was repeated starting at the antigen retrieval stage. Multispectral Images were captured on the Polaris imaging system (Akoya) and spectral unmixing and cell segmentation was performed using Inform Tissue Finder software (Akoya). Imaging data was converted into .csv files and imported into Flowjo for immune phenotyping.
Primary antibodies used were rat anti-mouse CD4 (clone 4SM95, Thermo 14-9766-82-82, paired with Opal 620), rabbit anti-mouse Ki67 (clone SP6, Thermo MA5-14520, paired with Opal 780), rabbit anti-mouse CD8a (clone D4W2Z, Cell Signaling 98941, paired with Opal 520). Rabbit anti-mouse S1008A (Polyclonal, Proteintech 15792-1-AP, paired with Opal 520), rabbit anti-mouse S1009A (Polyclonal, Proteintech 26992-1-AP, paired with Opal 570), rabbit anti-mouse CD11b (clone EPR1344, Abcam 133357, paired with Opal 690).

S100A8 and S100A9 = S100A8 and S100A9 levels in PBMCs and plasma of 4T1 allografted mice; assay type: in vivo, mouse; settings: FIG. 15C
[8] = 3 mg/kg HC-7366, Day 14, FIGS. 10B-10C
[9] = 4T1 allografted mice, FIGS. 15A-15B
[10] = greater in metastatic lesions than in normal tissue, FIGS. 12E-12F

For `CNC(=O)c1ncn2cc(-c3c(F)ccc(NS(=O)(=O)c4cc(Cl)cnc4OC)c3F)ncc12` [HC-7366, 6-(3-((5-chloro-2-methoxypyridine)-3-sulfonamido)-2,6-difluorophenyl)-N-methylimidazo[1,5-a]pyrazine-1-carboxamide], the “overall metastatic area in lung samples” value ([1]; 30 mg/kg HC-7366, 4T1 allografted mice, FIGS. 1A-1B) was “significant reduction in overall metastatic area”, the “anti-metastatic effect in lungs of tumor bearing mice” value ([1]; 1-3 mg/kg HC-7366, PO, BID, lungs collected 21 days after treatment initiation, FIGS. 5A-5C) was “consistent anti-metastatic effect” and the “number of lung metastases” value ([1]; combination therapy of HC-7366 with anti-PD-1 therapy, FIG. 2) was “significant reduction in the number of lung metastases”. The “efficacy on primary 4T1 tumors (tumor volume)” value (primary 4T1 tumors) was “little to no efficacy”, the “ASNS expression in lungs (IHC)” value [2] was “Significant increases” and the “PSAT1 expression in lungs (IHC)” value [2] was “Significant increases”. The “ASNS protein in primary 4T1 tumors (JESS)” value [3] was “Increases”, the “ATF4 protein in primary 4T1 tumors (JESS)” value [3] was “Increases” and the “PSAT1 protein in primary 4T1 tumors (JESS)” value [3] was “Increases”. For the same compound, the “TRIB3 protein in primary 4T1 tumors (JESS)” value [3] was “Increases”, the “splenomegaly (spleen weight)” value [4] was “significantly decreases splenomegaly” and the “gene expression in MDSC-enriched spleens” value ([5]; 3 mg/kg HC-7366) was “consistent increases in immune activation transcripts and reductions in inhibitory transcripts”. The “gene expression in tumor tissue” value [5] was “did not show consistent effects”, the “CD86 on MDSCs in the spleen and lungs” value (MDSCs and T-cells; [8]) was “significantly increased” and the “MHCII on MDSCs in the spleen and lungs” value (MDSCs and T-cells; [8]) was “significantly increased”. For the same compound, the “CD98 expression on CD8 T-cells in the lungs” value (MDSCs and T-cells; 3 mg/kg HC-7366, FIG. 14A) was “not on CD8 T-cells”, the “CD98 expression on MDSCs in the lungs” value (MDSCs and T-cells; 3 mg/kg HC-7366, FIG. 14A) was “significantly increased” and the “CD98 expression on MDSCs and CD8 T-cells in the spleen” value (MDSCs and T-cells; 3 mg/kg HC-7366, both cell subsets, FIG. 14B) was “increased CD98 expression”. For the same compound, the “MDSC frequency in spleens and lungs” value (MDSCs and T-cells; 3 mg/kg HC-7366, both organs, FIG. 10A) was “significantly reduced”, the “activation markers of CD4 and CD8 T-cells in lungs (intracellular flow cytometry)” value (MDSCs and T-cells; Day 21 of Tx, FIGS. 13A-13B) was “significantly increased activation markers” and the “activation markers of CD4 and CD8 T-cells in spleens (intracellular flow cytometry)” value (MDSCs and T-cells; Day 21 of Tx, FIGS. 13C-13D) was “not in spleens”. For the same compound, the “T-cell proliferation in the presence of BM-derived MDSCs (CTV dilution)” value [6] was “significantly rescued T-cell proliferation”, the “S100A8 and S100A9 levels in lung metastases” value [7, 9] was “significant reductions” and the “S100A8 and S100A9 levels in normal lung tissue” value [7, 9] was “significant reductions”. For the same compound, the “CD8 T-cells in metastatic lesions of lung” value ([7]; HC-7366 treated 4T1 allografted mice, FIG. 12C) was “significantly increased”, the “CD8 T-cells in normal lung tissue” value ([7]; HC-7366 treated 4T1 allografted mice, increase compared with that in metastatic lesions, FIG. 12D) was “to a lesser degree” and the “Ki67 expression of CD4 T-cells in lung” value [7, 10] was “significantly increased Ki67 expression”. For the same compound, the “Ki67 expression of CD8 T-cells in lung” value [7, 10] was “significantly increased Ki67 expression”, the “S100A8 and S100A9 levels in PBMCs” value (S100A8 and S100A9) was “significant reductions” and the “S100A8 and S100A9 levels in plasma” value (S100A8 and S100A9) was “significant reductions”.
